Test results as given in publication PMC10679740, “Role of peptide–cell surface interactions in cosmetic peptide application” (Frontiers in Pharmacology, 2023).
Structures can show the parent of a compound that is named as a salt. Where two headings read alike, the source gives them in different places. Where a SMILES comes first, the peptide text is derived from it. Where no end group is shown, it is not given here.

Key:
[1] = target: T1, Human neutrophil elastase (Homo sapiens, UniProt P08246); assay: Assay of elastase activity (pNA substrate, OD 405 nm); assay type: biochemical; settings: 2.5 U/mL elastase, 37°C, 2 h time point; for elastase inhibition rate: peptide 200 μg/mL, 5 min preheating
T1 construct: purchased Yuanye Bio Co. (Shanghai)
T1 sequence (P08246 30-267): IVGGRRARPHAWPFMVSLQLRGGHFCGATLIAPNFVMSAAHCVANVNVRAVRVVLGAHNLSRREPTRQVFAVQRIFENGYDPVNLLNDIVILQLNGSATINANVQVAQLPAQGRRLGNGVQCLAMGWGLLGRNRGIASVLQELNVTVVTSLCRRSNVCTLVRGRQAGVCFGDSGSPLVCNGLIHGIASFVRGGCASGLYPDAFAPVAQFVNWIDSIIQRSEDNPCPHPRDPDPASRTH
Description: N-Methoxysuccinyl-ala-ala-pro-val-p-nitroanilide (CAS: 70967-90-7) was bought from Sigma Chemical Co. (St. Louis, United States). Sivelestat sodium salt hydrate (S7198, CAS: 201677-61-4) was purchased from Meilun Co. (Dalian). Human neutrophil elastase (30 U/mg) was obtained from Yuanye Bio Co. (Shanghai). p-Nitroanilide (pNA, CAS: […]) was bought from Aladdin Co. (Shanghai). All other chemicals were of analytical grade and purchased from Sigma.
The stock solution (0.1 mg/mL pNA) was prepared in 10% DMSO. The standard curve of pNA was made using the different volumes of stock (200, 150, 100, 50, 30, 20, 10, 5, and 1 μL) mixed with 10% DMSO to reach a final volume of 200 μL. The optical density (OD) of each sample was measured at a wavelength of 405 nm.
Substrates were dissolved in 10% DMSO to form a final concentration of 100 μM. A measure of 100 μL of different concentrations (10, 5, 2.5, 1.25, 0.625, and 0.3125 U/mL) of elastase solution in 10% DMSO was preheated at 37°C for 5 min, and 100 μL of substrate solution was added to start the reaction at 37°C. The absorbance at 405 nm was monitored at 5-min intervals up to a recording time of 2 h at 37°C. A measure of 200 μL of 10% DMSO was taken as a blank control.
A measure of 90 μL of 2.5 U/mL elastase solution together with 10 μL of the sample at a certain concentration was preheated at 37°C for 5 min, and then 100 μL of the substrate was added to initiate a 120 min-reaction at 37°C. The OD was read at 405 nm. A measure of 200 μL of 10% DMSO was used as a blank control; 10 μL of Sivelestat solution at 10 mM was prepared as a positive control; and 10 μL of PBS was added as a negative control that represented the maximum enzyme activity. The inhibition rate of elastase was calculated according to the following formula: inhibition (%) = [1 − (ODsample − ODblank)/(ODneg − ODblank)] × 100%.

[2] = test system: COL-1 of mouse embryonic fibroblasts NIH3T3; assay: Immunofluorescence staining of COL-1; assay type: cell-based; settings: NIH3T3, pretreatment 4 h (RGD-GHK 200 μg/mL), 400 µM H2O2 2 h, fresh medium 20 h
Description: (§1) HFF-1 cells (1.5 × 10^5 cells per well) or mouse embryonic fibroblasts (NIH3T3) were grown on sterile cell slides for 24 h till 80% confluence. A measure of 200 μg/mL of RGD-GHK and GHK solutions was prepared with serum-free DMEM, and the cells were treated with the solutions for 4 h. Then, the solutions were replaced with 400 µM H2O2 and incubated for another 2 h. Then, the fresh culture medium was added to the cells and incubated for another 20 h. Pretreatment without peptides was used as a negative control, while treatment with an anti-aging peptide, acetyl hexapeptide-8 (Wrinklend), was taken as a positive control. The slides were washed three times with PBS, followed by fixation in 500 µL of 4% paraformaldehyde for 15 min at room temperature. After washing with PBS another three times, the cells were permeabilized with 0.5% Triton X-100 for 15 min and washed with PBS repeatedly. The cells were blocked using 1% BSA for 1 h to eliminate non-specific binding. Samples were incubated at 4°C overnight with 100 µL of rabbit monoclonal antibody against type I collagen (COL1A1, 1:100 dilution, CST). […] Then, a fluorescent anti-quenching agent was applied to seal off the slips for 5 min, and the slips were observed using an upright fluorescence microscope.

[3] = test system: COL-1 of the human fibroblasts HFF-1; assay: Immunofluorescence staining of COL-1; assay type: cell-based; settings: HFF-1, pretreatment 4 h (RGD-GHK 200 μg/mL), 400 µM H2O2 2 h, fresh medium 20 h
Description: as §1

[4] = In vitro skin permeation test, Franz-type diffusion cells
Description: The transdermal delivery of GHK and RGD-GHK was measured through the porcine skin. Permeation experiment was carried out for 24 h at 37 °C with Franz-type diffusion cells. Peptides in collected receptor solutions and skin retention were analyzed by HPLC. […] To further test whether the incorporation of a targeting motif could enhance the binding of chimeric peptides in vivo, we used smearing FITC-peptides at the mouse back for 24 h and tracked the peptide location of the skin slices by fluorescent microscopy.

mouse red blood cells = settings: 2 mg/mL peptide, 5% (v/v) mouse red blood cells in PBS, 37°C, 1 h, OD 540 nm; repeated five times
Description: The blood compatibility of peptides was assessed using mouse red blood cells. The procedure involved obtaining red blood cells by centrifuging mouse blood at 2,000 rpm for 5 min, followed by washing them with PBS three times. The red blood cells were then diluted to a final concentration of 5% (v/v). Then, 2 mg/mL of peptides were added to 1 mL of the red blood cell suspension, and the mixture was incubated at 37°C for 1 h. After incubation, the suspension was centrifuged at 2000 rpm for 5 min, and the supernatant was measured at 540 nm using a microplate reader. The positive control consisted of 0.1% Triton X-100, while PBS served as a negative control. […] The hemolysis percentage was calculated using the following formula: hemolysis (%) = [(ODsample −ODnc)/(ODpc − ODnc)] × 100%.

chymotrypsin = assay: Proteolytic stability assay; assay type: in vitro ADME; settings: peptide 1 mg/mL, chymotrypsin 1 mg/mL, 37°C, 0, 1, 2, 4, 8, 16 h (Figure S3: 0-8 h); remaining peptide by C18 RP-HPLC, 220 nm
Description: To evaluate the proteolytic stability of peptides against chymotrypsin, the peptides were dissolved to 1 mg/mL and incubated with chymotrypsin (1 mg/mL) at 37°C for different times (0, 1, 2, 4, 8, and 16 h). Afterward, the remaining peptides in the samples were analyzed by C18 reversed-phase high-performance liquid chromatography (HPLC) and detected at 220 nm. The mobile phase of HPLC was a mixture of acetonitrile and deionized water containing 0.1% trifluoroacetic acid.

HFF-1 = assay: Cell viability, CCK-8 assay; settings: HFF-1, 2 h incubation
Description: (§2) Cells (1 × 10^4 cells per well) were seeded in a 96-well plate to reach approximately 80% confluence. Wells filled with DMEM alone served as positive controls (PCs). The culture medium of sample groups was replaced either by 100 μL of H2O2 or naked/FITC-labeled peptide solutions at different concentrations for a certain time of incubation, and non-treatment wells acted as negative controls (NCs). Then, the plate solutions were substituted with 100 μL of 10% CCK-8 solution per well and incubated for another 2 h, followed by an absorbance reading taken at 450 nm. The cell survival was determined according to the following formula: cell viability (%) = (ODsample − ODpc)/(ODnc − ODpc) × 100%.

HaCaT [5] = assay: Cell apoptosis assay (Annexin V-FITC/PI, FCM); assay type: cell-based, human; settings: with or without peptide 200 μg/mL 4 h, 800 μM H2O2 2 h, medium 18 h, Figure 4E/G
Description: The percentage of early-stage apoptosis and late-stage apoptosis and necrosis of cells induced by H2O2, with or without peptide addition, were determined using an Annexin V-FITC/PI double-staining assay kit (Beyotime). Cells (1×10^5 cells per well) were seeded in a 24-well plate, pretreated with or without peptide solutions, and incubated for 4 h. The peptide solution or culture medium was replaced with 800 μM of H2O2 solution and was incubated for 2 h at 37°C. Then, the cells were incubated only with the complete medium for another 18 h. Non-treated groups were taken as controls. Suspended medium (200 µL) and trypsin-disassociated cells were collected and centrifuged at 1,000 rpm for 4 min. The precipitate was resuspended in binding buffer (195 µL) plus Annexin V-FITC (5 µL) and incubated for 5 min, followed by 10-min staining of 10 µL propidium iodide (PI). The non-staining sample was used as a reference. After a gentle mix at room temperature and a dark environment, the ratio of cell death was detected via flow cytometry (FCM). […] The free dye was inclined to bind to DNA in the nucleus and emitted strong green fluorescence when DEVD dye was broken down by caspase-3. The fluorescence intensity was measured by FCM, which represented the activity of caspase-3.

HaCaT cells = assay: Release of lactate dehydrogenase after H2O2 damage; assay type: cell-based, human; settings: 800 μM H2O2 for 2 h, then fresh medium 18 h, no peptide
Description: Lactate dehydrogenase (LDH) activity of the cellular culture was evaluated using an LDH release assay kit (Beyotime). Cells (1 × 10^5 cells per well) were cultured in a 24-well plate for 24 h to reach approximately 80% confluence and then treated either with peptide solution or peptide-free DMEM (positive control, PC). After 4 h incubation, both the peptide solution and peptide-free culture medium were replaced with 250 μL of 800 µM H2O2 and incubated for another 2 h. Then, the cells were incubated with 500 µL of the fresh medium instead of H2O2 for 18 h. Then, 200 µL of the supernatant alone was harvested and mixed with 20 µL of the releasing agent, while the PC medium together with cells was incubated with the equivalent releasing agent. A measure of 200 μL of DMEM alone mixed with 20 µL of the releasing agent was used as a negative control (NC). Then, the solution was incubated at 37°C and 5% CO2 for 1 h and centrifuged at 1,000 rpm for 4 min. A measure of 40 μL suspension per well was pipetted into a 96-well plate and mixed with 20 µL of fresh LDH working solution that was prepared according to the manufacturer’s protocol. The plate was briefly vortexed in the dark for 30 min, and the OD values were measured at 490 nm wavelength. LDH release (%) was expressed via the following equation: LDH (%) = (ODsample − ODnc)/(ODpc − ODnc) × 100%.

HaCaT [6] = assay: Cell viability, CCK-8 assay; settings: 2 h incubation
Description: as §2

[7] = porcine skin, Franz-type diffusion cells, 24 h, 37 °C, HPLC

Molecule: RKQRRERGHK [sOtx2-GHK]
- elastase inhibition rate [1]: ~20%

Molecule: CC(C)(C)C(=O)Oc1ccc(S(=O)(=O)Nc2ccccc2C(=O)NCC(=O)O)cc1 [Sivelestat, Sivelestat sodium salt hydrate, reference compound]
- inhibition at 250 µM ([1]; 250 μM of Sivelestat (positive control), read-out: elastase inhibition rate): ~65%

Molecule: acetyl hexapeptide-8 [Wrinklend]
- COL-1 expression (immunofluorescence) [2]: significantly suppressed COL-1 degradation
- COL-1 expression (immunofluorescence) [3]: significantly suppressed COL-1 degradation

Molecule: NCCCC[C@H](NC(=O)[C@H](Cc1cnc[nH]1)NC(=O)CN)C(=O)O [GHK, tripeptide-1, reference compound] (H-Gly-His-Lys-OH)
- peptide detected in the receptor cell [4]: ~0.5%
- peptide detected in the skin (skin retention) [4]: 2.7%

Molecule: RGDGHK [RGD-GHK]
- elastase inhibition rate [1]: approximately 25%
- hemolysis (RBCs lysed) (mouse red blood cells): less than 1%
- proteolytic stability against chymotrypsin, compared with GHK (chymotrypsin): no significant difference in the proteolytic stability
- peptide detected in the receptor cell [4, 7]: approximately 5%
- peptide detected in the skin (skin retention) [4, 7]: 5%

Molecule: OO [H2O2]
- concentration with obvious cytotoxicity (HFF-1): 800 µM
- ratio of early apoptosis (HaCaT [5]): 28%
- LDH leakage (HaCaT cells): over 37%
- concentration with apparent cytotoxic effect (HaCaT [6]): 1,600 μM
